Measurements as given in PubChem BioAssay (NCI).
“And” between values parts separate entries of the source, which are not always exact repeats. Equal values may be shown once.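 Following 48 hours of exposure in 96-well plates, responses at five concentrations were used to interpolate endpoints linearly. The concentration for 50% growth inhibition is given as GI50. The concentration for full growth arrest is given as TGI.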

What was measured:
Experiment in all cases: NCI tumour cell line growth inhibition, 48 h
[1] = system: LOX IMVI melanoma
[2] = system: SN12C renal
[3] = system: COLO 205 colon
[4] = system: HCT-15 colon
[5] = system: M19-MEL melanoma
[6] = system: HL-60(TB) leukemia
[7] = system: 786-0 renal
[8] = system: NCI-H460 lung
[9] = system: IGROV1 ovarian
[10] = system: SW-620 colon

SMILES | TGI [1] | TGI [2] | TGI [3] | TGI [4] | TGI [5] | TGI [6] | TGI [7] | TGI [8] | TGI [9] | TGI [10] | GI50 [1] | GI50 [2] | GI50 [3] | GI50 [4] | GI50 [6] | GI50 [7] | GI50 [8] | GI50 [10] | GI50 [9]
Cc1ccc(S(=O)(=O)N/N=C(\c2nc3ccc([N+](=O)[O-])cc3[nH]c2=O)C(O)c2ccc([N+](=O)[O-])cc2)cc1 (stereo unspecified) | > 100 µM | > 100 µM | > 100 µM | > 100 µM | > 100 µM | 95.6 µM | > 100 µM | > 100 µM | > 100 µM | > 100 µM | – | – | – | – | – | – | – | – | –
Cc1ccccc1NC(=O)/C=N/O | > 100 µM | > 100 µM | > 100 µM | > 100 µM | > 100 µM | 48.5 µM | > 100 µM | – | > 100 µM | > 100 µM | – | – | – | – | – | – | – | – | –
N#COc1ccc(Oc2ccccc2)cc1 | 40.9 µM | > 100 µM | > 100 µM | > 100 µM | > 100 µM | 75.8 µM | > 100 µM | > 100 µM | > 100 µM | – | – | – | – | – | – | – | – | – | –
CC(C)(C)OP(=O)(OC(C)(C)C)C(O)c1ccc(/C=C(\C#N)C(N)=O)cc1 (stereo unspecified) | > 100 µM | > 100 µM | > 100 µM | > 100 µM | > 100 µM | > 100 µM | > 100 µM | > 100 µM | > 100 µM | > 100 µM | – | – | – | – | – | – | – | – | –
Nc1ccc(-c2cc(C(=O)Nc3nccs3)[nH]c(=S)n2)cc1 | > 100 µM | > 100 µM | > 100 µM | > 100 µM | > 100 µM | – | > 100 µM | – | > 100 µM | > 100 µM | – | – | – | – | – | – | – | – | –
O=C1CC(c2c(-c3ccccc3)[nH]c3ccccc23)C(=O)N1c1ccccc1 (stereo unspecified) | – | – | – | > 100 µM | > 100 µM | > 100 µM | > 100 µM | > 100 µM | > 100 µM | > 100 µM | – | – | – | – | – | – | – | – | –
O=C1N2Cc3c4ccc5c3CN3C(=O)N6Cc7c(ccc(c7CN1C6(c1ccccc1)C23c1ccccc1)OCCOCCOc1cc(Br)c(Br)cc1OCCOCCO4)OCCOCCOc1cc(Br)c(Br)cc1OCCOCCO5 (stereo unspecified) | – | > 100 µM | – | 67.7 µM | > 100 µM | – | > 100 µM | > 100 µM | > 100 µM | 28.3 µM | – | – | – | – | – | – | – | – | –
O=c1c2ccccc2[nH]c2c(O)ccc(O)c12 | 33.9 µM | 28.5 µM | – | 37.2 µM | 63.6 µM | 10.2 µM | 38.8 µM | 50.9 µM | 35.3 µM | 36.1 µM | – | – | – | – | – | – | – | – | –
C/C(=N\NC(=O)C[N+](C)(C)C)c1sc(-c2cccnc2)nc1C | > 100 µM | – | > 100 µM | – | > 100 µM | > 100 µM | > 100 µM | > 100 µM | > 100 µM | > 100 µM | – | – | – | – | – | – | – | – | –
CCO/S(=N/S(=O)(=O)c1ccccc1)c1ccccc1[N+](=O)[O-] (stereo unspecified) | > 100 µM | > 100 µM | > 100 µM | > 100 µM | > 100 µM | – | > 100 µM | > 100 µM | > 100 µM | > 100 µM | – | – | – | – | – | – | – | – | –
CC1(C)CCCC2(C)C3C(O)CC2(C)C(O)C31 (stereo unspecified) | > 100 µM | > 100 µM | > 100 µM | > 100 µM | > 100 µM | – | 0.156 µM | > 100 µM | > 100 µM | > 100 µM | – | – | – | – | – | – | – | – | –
Cc1ccc(S(=O)(=O)NC(=O)NCCc2ccccc2)cc1 | > 100 µM | > 100 µM | > 100 µM | – | > 100 µM | > 100 µM | > 100 µM | > 100 µM | > 100 µM | > 100 µM | – | – | – | – | – | – | – | – | –
COC(=O)CCC(=O)N1C/C(=C\c2ccccc2)C(=O)/C(=C/c2ccccc2)C1 | 1.59 µM | 3.44 µM | 3.67 µM | 2.43 µM | 11.7 µM | – | 3.75 µM | 10.8 µM | 3.94 µM | 0.389 µM | – | – | – | – | – | – | – | – | –
CC1=CC(C)(c2c[nH]c3ccccc23)CC(C)(C)c2c1[nH]c1ccccc21 (stereo unspecified) | 31.5 µM | 28.5 µM | – | – | 43.7 µM | – | 27.1 µM | 34.5 µM | 36 µM | 32.1 µM | – | – | – | – | – | – | – | – | –
CN1CCN(c2ccc(OC(F)(F)F)c(Nc3ncc4c(n3)-c3c(c(C(N)=O)nn3CCO)CC4)c2)CC1 | 16.1 µM and > 3.87 µM | 20.7 µM and > 10 µM | – | > 100 µM | – | 0.0744 µM | 32.4 µM and > 10 µM | 14.9 µM and > 10 µM | 46.6 µM and > 10 µM | > 84.3 µM | 0.0372 µM and 0.0519 µM | 1.13 µM and 0.721 µM | 0.0255 µM and 0.0275 µM | 0.213 µM and 0.266 µM | 0.0237 µM and 0.0298 µM | 0.428 µM and 0.466 µM | 0.0391 µM and 0.0849 µM | 0.0273 µM and 0.0316 µM | –
O=C(CSCC(=O)N/N=C/c1ccccc1O)N/N=C\c1ccccc1O | > 100 µM | > 100 µM | > 100 µM | > 100 µM | – | 5.11 µM | 6.59 µM | > 100 µM | > 100 µM | > 100 µM | 0.748 µM | 2.46 µM | 2.19 µM | 0.52 µM | 1.49 µM | 1.95 µM | 2.27 µM | 3.25 µM | 1.91 µM
Cc1cc(C(=O)Nc2n[nH]c3ccccc23)n[nH]1 | > 100 µM | > 100 µM | > 100 µM | > 100 µM | – | > 100 µM | > 100 µM | > 100 µM | > 100 µM | > 100 µM | > 100 µM | > 100 µM | > 100 µM | > 100 µM | 75.2 µM | > 100 µM | > 100 µM | > 100 µM | 32.7 µM
COc1cc(Cl)cc(-c2nn(-c3cccc(NC(=O)Nc4cccc(C(F)(F)F)c4)c3)cc2-c2ccncc2)c1 | 7.04 µM | 18.5 µM | 3.17 µM | 10.6 µM | – | 5.51 µM | 6.78 µM | 4.66 µM | 22.7 µM | 26.8 µM | 1.81 µM | 2.06 µM | 1.53 µM | 1.34 µM | 1.91 µM | 1.94 µM | 0.84 µM | 2.3 µM | 2.86 µM
Cc1ccc(Nc2cc(Cl)c([N+](=O)[O-])cc2[N+](=O)[O-])cc1 | 5.62 µM | 14.6 µM | 3.92 µM | 16.5 µM | – | 14.6 µM | 14 µM | 5.45 µM | 10.4 µM | 6.82 µM | 1.15 µM | 4.1 µM | 2.11 µM | 4.12 µM | 3.62 µM | 3.97 µM | 2.35 µM | 2.35 µM | 3.89 µM
COc1cccc(-c2nn(-c3ccccc3)cc2-c2ccnc(NCCCNC(=O)c3cccc(C(F)(F)F)c3)c2)c1 | 18.3 µM | 38.5 µM | 12.4 µM | 15.6 µM | – | 13.1 µM | 15.1 µM | 18.2 µM | 32 µM | 31.5 µM | 4.55 µM | 6.06 µM | 3.33 µM | 3.4 µM | 3.27 µM | 3.75 µM | 4.03 µM | 4.35 µM | 7.59 µM
